pIC50: −log10 of the molar value.
Tests used:
Experiment in all cases: SelectScreen Biochemical Kinase Assay
[1] = target: Phosphatidylinositol 4,5-bisphosphate 3-kinase catalytic subunit gamma isoform (Mus musculus, UniProt Q9JHG7)
Method: (§1) Biochemical in vitro lipid kinase assays were performed by the SelectScreen biochemical kinase assay service (Invitrogen Ltd.). A stock solution of GS-9820 was prepared in DMSO at a concentration of 10 mM. Ten-point kinase inhibitory activities were measured over a concentration range (5 to 10^4 nM) with ATP at a concentration consistent with the Km of each of the enzymes.

[2] = target: Phosphatidylinositol 4-phosphate 5-kinase type-1 beta (Mus musculus, UniProt P70181)
Phosphatidylinositol 4-phosphate 5-kinase type-1 beta, sequence (P70181 whole entry): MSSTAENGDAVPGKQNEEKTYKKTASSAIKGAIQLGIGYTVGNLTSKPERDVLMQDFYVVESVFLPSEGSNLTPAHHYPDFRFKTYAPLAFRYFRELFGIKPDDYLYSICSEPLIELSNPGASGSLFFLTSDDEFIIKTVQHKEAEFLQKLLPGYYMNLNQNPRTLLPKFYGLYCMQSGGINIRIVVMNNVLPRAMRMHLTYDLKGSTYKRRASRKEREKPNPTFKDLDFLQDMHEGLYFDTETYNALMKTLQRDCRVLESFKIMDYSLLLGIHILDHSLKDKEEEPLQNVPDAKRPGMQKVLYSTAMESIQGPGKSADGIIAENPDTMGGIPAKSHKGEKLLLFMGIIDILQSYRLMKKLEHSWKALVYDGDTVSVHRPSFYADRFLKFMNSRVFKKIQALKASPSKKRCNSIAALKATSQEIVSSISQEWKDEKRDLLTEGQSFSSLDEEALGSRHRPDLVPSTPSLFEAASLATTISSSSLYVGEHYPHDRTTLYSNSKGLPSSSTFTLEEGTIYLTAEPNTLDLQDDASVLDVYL
Method: as §1

[3] = target: Phosphatidylinositol 4-phosphate 5-kinase type-1 alpha (Mus musculus, UniProt P70182)
Phosphatidylinositol 4-phosphate 5-kinase type-1 alpha, sequence (P70182 whole entry): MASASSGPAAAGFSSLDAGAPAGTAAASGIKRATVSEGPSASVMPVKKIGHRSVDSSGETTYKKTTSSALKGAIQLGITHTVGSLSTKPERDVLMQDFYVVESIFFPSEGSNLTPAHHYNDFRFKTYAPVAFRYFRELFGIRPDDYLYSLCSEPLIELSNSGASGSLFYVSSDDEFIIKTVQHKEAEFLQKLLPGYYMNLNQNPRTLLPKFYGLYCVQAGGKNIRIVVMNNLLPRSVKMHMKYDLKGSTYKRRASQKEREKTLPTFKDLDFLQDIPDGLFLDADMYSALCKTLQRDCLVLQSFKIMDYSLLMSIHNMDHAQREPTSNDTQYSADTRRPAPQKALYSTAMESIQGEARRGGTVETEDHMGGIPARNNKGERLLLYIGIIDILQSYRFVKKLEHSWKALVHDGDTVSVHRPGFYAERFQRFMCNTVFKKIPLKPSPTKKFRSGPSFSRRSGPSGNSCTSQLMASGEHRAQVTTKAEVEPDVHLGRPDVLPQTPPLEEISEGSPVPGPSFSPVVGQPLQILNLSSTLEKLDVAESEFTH
Method: as §1

[4] = target: T1, Phosphatidylinositol 4,5-bisphosphate 3-kinase catalytic subunit delta isoform (Mus musculus, UniProt O35904)
T1 sequence (O35904 whole entry): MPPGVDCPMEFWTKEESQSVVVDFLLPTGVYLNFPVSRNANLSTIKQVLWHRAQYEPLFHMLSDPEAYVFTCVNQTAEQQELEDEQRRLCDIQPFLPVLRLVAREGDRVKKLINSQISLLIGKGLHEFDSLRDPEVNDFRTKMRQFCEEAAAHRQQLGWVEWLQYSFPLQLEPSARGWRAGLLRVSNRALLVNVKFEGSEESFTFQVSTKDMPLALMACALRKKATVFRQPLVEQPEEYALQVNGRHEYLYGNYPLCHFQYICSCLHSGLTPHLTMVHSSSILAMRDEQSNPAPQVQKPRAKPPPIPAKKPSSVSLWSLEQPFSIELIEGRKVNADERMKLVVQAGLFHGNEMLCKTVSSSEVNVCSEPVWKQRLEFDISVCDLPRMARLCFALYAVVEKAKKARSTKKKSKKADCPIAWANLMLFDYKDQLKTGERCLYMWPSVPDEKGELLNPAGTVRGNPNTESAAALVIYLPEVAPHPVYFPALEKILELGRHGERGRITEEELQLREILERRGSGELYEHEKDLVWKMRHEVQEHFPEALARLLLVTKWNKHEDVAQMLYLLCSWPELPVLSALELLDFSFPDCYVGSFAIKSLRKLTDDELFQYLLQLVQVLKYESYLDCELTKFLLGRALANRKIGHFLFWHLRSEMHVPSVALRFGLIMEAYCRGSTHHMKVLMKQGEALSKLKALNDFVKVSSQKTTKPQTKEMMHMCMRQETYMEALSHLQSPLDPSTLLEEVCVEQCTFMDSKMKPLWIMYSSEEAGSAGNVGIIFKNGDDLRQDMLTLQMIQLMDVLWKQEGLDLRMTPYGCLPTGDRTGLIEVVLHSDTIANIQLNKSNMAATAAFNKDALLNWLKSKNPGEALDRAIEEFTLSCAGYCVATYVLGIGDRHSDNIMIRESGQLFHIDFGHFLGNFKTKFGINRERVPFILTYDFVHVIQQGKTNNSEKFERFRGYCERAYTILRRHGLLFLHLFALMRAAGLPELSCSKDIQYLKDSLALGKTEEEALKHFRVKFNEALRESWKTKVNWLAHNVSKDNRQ
Method: as §1

[5] = target: DNA-dependent protein kinase catalytic subunit (Mus musculus, UniProt P97313)
Method: as §1

[6] = target: Phosphatidylinositol 4,5-bisphosphate 3-kinase catalytic subunit alpha isoform (Mus musculus, UniProt P42337)
Phosphatidylinositol 4,5-bisphosphate 3-kinase catalytic subunit alpha isoform, sequence (P42337 whole entry, canonical isoform): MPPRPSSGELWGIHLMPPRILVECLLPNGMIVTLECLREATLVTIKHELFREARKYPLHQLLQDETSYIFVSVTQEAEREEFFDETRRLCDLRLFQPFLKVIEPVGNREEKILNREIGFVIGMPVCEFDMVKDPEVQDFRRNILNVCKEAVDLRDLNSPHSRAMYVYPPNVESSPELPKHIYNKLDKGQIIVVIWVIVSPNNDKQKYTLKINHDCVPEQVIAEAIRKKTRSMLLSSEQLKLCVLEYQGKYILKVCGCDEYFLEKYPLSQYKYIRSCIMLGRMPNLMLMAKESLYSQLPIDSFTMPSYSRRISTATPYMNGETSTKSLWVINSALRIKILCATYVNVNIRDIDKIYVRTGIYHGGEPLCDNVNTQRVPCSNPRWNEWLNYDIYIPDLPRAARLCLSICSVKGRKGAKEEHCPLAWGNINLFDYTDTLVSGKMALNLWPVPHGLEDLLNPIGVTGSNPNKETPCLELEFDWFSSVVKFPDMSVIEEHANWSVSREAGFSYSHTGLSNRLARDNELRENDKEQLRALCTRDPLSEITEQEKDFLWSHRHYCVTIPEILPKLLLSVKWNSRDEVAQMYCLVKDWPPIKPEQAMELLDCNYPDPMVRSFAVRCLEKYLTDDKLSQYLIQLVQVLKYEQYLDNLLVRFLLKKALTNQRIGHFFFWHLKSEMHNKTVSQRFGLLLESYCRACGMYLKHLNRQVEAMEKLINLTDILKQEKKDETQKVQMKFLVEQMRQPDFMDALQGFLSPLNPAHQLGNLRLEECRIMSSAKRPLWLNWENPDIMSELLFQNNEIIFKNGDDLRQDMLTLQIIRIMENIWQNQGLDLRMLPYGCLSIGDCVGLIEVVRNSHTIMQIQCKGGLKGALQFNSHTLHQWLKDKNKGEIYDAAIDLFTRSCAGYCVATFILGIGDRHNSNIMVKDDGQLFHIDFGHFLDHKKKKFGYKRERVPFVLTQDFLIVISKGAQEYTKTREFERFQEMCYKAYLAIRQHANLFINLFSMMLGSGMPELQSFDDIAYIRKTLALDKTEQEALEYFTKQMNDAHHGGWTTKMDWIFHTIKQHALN
Method: as §1

[7] = target: Phosphatidylinositol 4,5-bisphosphate 3-kinase catalytic subunit beta isoform (Mus musculus, UniProt Q8BTI9)
Phosphatidylinositol 4,5-bisphosphate 3-kinase catalytic subunit beta isoform, sequence (Q8BTI9 whole entry, canonical isoform): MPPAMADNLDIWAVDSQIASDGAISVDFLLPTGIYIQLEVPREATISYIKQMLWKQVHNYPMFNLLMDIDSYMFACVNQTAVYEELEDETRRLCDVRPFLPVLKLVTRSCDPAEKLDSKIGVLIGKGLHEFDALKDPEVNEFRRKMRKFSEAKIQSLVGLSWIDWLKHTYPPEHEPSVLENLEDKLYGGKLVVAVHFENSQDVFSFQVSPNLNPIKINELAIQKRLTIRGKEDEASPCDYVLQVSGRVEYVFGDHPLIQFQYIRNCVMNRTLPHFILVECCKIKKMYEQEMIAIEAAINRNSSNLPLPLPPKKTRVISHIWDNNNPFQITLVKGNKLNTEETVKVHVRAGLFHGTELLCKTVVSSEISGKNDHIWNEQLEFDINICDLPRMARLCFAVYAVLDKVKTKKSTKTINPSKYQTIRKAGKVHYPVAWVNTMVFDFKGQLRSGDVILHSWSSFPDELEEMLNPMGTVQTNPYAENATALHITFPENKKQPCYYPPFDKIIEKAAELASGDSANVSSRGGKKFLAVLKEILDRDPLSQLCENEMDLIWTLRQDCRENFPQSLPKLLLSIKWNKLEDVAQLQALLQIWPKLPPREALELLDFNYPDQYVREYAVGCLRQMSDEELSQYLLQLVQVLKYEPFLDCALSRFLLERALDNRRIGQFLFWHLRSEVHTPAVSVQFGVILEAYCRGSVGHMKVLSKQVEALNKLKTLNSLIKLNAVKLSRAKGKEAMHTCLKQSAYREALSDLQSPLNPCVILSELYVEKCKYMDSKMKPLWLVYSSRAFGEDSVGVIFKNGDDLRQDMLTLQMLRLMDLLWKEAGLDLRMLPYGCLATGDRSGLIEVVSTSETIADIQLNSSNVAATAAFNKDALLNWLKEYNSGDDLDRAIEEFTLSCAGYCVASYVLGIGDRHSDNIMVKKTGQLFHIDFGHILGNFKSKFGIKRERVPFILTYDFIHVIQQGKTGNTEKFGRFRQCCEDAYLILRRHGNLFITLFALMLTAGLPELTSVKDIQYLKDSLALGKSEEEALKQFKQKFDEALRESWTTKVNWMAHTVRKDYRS
Method: as §1

Phosphatidylinositol 4,5-bisphosphate 3-kinase catalytic subunit gamma isoform, sequence (Q9JHG7 whole entry, canonical isoform): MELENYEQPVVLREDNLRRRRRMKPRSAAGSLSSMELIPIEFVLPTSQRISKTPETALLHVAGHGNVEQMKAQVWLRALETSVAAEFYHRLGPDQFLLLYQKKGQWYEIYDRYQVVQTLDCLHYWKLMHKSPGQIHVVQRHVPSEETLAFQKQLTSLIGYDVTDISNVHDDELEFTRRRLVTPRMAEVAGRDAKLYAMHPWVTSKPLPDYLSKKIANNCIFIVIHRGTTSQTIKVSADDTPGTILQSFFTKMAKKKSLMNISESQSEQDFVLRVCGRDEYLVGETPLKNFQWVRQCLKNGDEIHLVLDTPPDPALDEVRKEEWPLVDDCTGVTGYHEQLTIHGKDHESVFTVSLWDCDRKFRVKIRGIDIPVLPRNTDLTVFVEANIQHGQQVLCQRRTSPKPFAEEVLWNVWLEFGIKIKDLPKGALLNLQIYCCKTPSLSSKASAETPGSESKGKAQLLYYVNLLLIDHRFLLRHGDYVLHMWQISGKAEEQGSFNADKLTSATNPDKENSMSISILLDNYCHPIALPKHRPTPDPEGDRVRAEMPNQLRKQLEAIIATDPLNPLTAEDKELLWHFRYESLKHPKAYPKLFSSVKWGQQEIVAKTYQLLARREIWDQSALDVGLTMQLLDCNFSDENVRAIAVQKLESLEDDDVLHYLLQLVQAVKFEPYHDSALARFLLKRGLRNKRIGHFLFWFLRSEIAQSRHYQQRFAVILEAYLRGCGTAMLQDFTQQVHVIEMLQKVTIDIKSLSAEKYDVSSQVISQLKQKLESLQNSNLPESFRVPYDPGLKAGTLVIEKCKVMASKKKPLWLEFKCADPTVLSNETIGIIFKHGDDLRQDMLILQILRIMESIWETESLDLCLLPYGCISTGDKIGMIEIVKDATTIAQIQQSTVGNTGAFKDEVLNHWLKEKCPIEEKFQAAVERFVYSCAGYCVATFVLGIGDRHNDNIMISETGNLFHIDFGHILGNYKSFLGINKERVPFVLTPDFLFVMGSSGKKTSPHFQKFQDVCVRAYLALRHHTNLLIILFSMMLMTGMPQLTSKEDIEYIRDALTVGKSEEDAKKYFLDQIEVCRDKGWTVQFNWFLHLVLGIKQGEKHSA

Molecule `C[C@H](Nc1ncnc2[nH]cnc12)c1nc2ccc(F)cc2c(=O)n1-c1ccccc1` [GS-9820] has a pIC50 [1] of 5.86, a pIC50 [2] of under 5.00 and a pIC50 [3] of under 5.00. The pIC50 [4] was 7.90, the pIC50 [5] was 4.73 and the pIC50 [6] was 5.26. It also gave a pIC50 [7] of 5.47.
